{
  "source": "patent US20100041756A1",
  "about": "“METHOD OF MODULATING B CELL FUNCTIONING” (priority 2004, published 2010)",
  "assay_type_in_all_cases": "cell-based, mouse",
  "key": {"[1]": {"test_system": "B cells stimulated with anti-CD40", "test": "Purified B cell proliferation, anti-CD40, 3H-thymidine incorporation (Example 4)", "method": "(§1) FIG. 10 is a graphical representation depicting that 3,4-DAA and 3-HAA inhibit B and T cell proliferation in vitro. Purified B and T cells were stimulated for 72 h with anti-CD40 (a), or anti-CD3/anti-CD28 (b) respectively, in the presence of varying doses of 3,4-DAA, or 3-HAA.\n(§2) A single cell suspension was prepared from spleen by mincing through a cell strainer, and erythrocytes were lysed using an ammonium chloride solution (Sigma, St Louis, Mo., USA). B cells were positively enriched by using anti-IgM MACS microbeads, and T cells were positively enriched using anti-CD4 MACS microbeads and the MACS system, according to the manufacturer's guidelines (Miltenyi Biotec, Bergisch Gladbach, Germany). Purity was assessed by flow cytometric analysis (B cell>90% CD19+, T cell>90% CD4+). Cells were cultured at 5×10^5 cells/ml in 200 μl complete RPMI, as above, in a flat bottom 96-well plate and cultured for 72 h. B cells were stimulated with anti-CD40 monoclonal antibody (10 μg/ml; BD), and T cells were stimulated with 5 μg/ml plate-bound anti-CD3 (BD), 5 μg/ml soluble anti-CD28 (BD). Tranilast, 3-HAA, or vehicle (DMSO) were incubated at concentrations stated with the cultures. 48 hours after stimulation, 100 μl culture medium was collected, and cells were pulsed with 1 μCi ^3H thymidine per well for 18 h. Cells were then harvested and plates assessed for incorporation. Each assay was performed on a minimum of 3 occasions. Data shown is of one representative experiment, and is expressed as mean+/−SD of triplicate in culture. IFN-γ, IL-10 and IL-5 levels was assessed in the culture medium by ELISA, as above."}, "[2]": {"test_system": "T cells stimulated with anti-CD3/anti-CD28", "test": "Purified T cell proliferation, anti-CD3/anti-CD28, 3H-thymidine incorporation (Example 4)", "method": "as §1, §2"}, "[3]": {"test_system": "T cells stimulated with anti-CD3/anti-CD28", "test": "Cytokine production by stimulated T cells in vitro (ELISA)", "method": "as §1, §2"}},
  "note": "pIC50: −log10 of the molar value.",
  "data": [
    {"compound": "Nc1c(O)cccc1C(=O)O", "note": "[3-HAA, 3-Hydroxyanthranilic acid]", "values": [
      {"measurement": "pIC50", "setting": "[1]; Mus musculus, B-cell, anti-CD40, 72 h, 3H-thymidine (FIG. 10A), read-out: IC50 for inhibition of B cell proliferation", "result": 4.19},
      {"measurement": "B cell proliferation", "setting": "[1]; anti-CD40, varying doses (FIG. 10A)", "result": "dose-dependently inhibited"},
      {"measurement": "pIC50", "setting": "[2]; Mus musculus, T-cell, anti-CD3/CD28, 72 h, 3H-thymidine (FIG. 10B), read-out: IC50 for inhibition of T cell proliferation", "result": 4.00},
      {"measurement": "T cell proliferation", "setting": "[2]; anti-CD3/CD28, varying doses (FIG. 10B)", "result": "dose-dependently inhibited"},
      {"measurement": "IFN-γ production by T-cells", "setting": "[3]; FIG. 10C", "result": "dose-dependently reduced"},
      {"measurement": "IL-10 production by T-cells", "setting": "[3]; FIG. 10D", "result": "increased"},
      {"measurement": "IL-5 production by T-cells", "setting": "[3]; FIG. 10E", "result": "increased"}
    ]}
  ]
}
